# Assays:
# [1] = system: M. tuberculosis H37Rv infected dTHP-1 cells; experiment: Phagolysosome maturation: mycobacteria in acid compartments (Lyso Tracker Red / auramin confocal microscopy); assay type: cell-based; conditions: 3 mM EGTA added to cells stimulated with PS/PA liposomes; FIG. 7
# [2] = system: M. tuberculosis H37Rv infected dTHP-1 cells; experiment: Phagolysosome maturation: mycobacteria in LAMP-1 expressing compartments (anti-LAMP-1 / auramin confocal microscopy); assay type: cell-based; conditions: EGTA added to cells stimulated with PS/PA liposomes; FIG. 8
smiles,measurement,setting,value
O=C(O)CN(CCOCCOCCN(CC(=O)O)CC(=O)O)CC(=O)O [EGTA],effect on PS/PA liposome induced phagosome acidification,[1],inhibits the acidification process of phagosome restoring the initial conditions
same,effect on PS/PA liposome induced phagolysosome maturation (LAMP-1),[2],inhibits
